Assay results as given in ChEMBL document CHEMBL5500324, “The potential of marine-derived piperazine alkaloids: Sources, structures and bioactivities” (Eur J Med Chem, 2024).
≈ marks a conversion by molar mass, not a printed value.

Legend:
PC-3 [1] = experiment: Cytotoxicity against human PC-3 cells assessed as reduction in cell growth incubated for 48 hrs by CCK-8 assay; assay type: functional, cell-based; details: PC-3, 48 h
U-937 [2] = experiment: Cytotoxicity against human U-937 cells assessed as reduction in cell growth incubated for 48 hrs by CCK-8 assay; assay type: functional, cell-based; details: U-937, 48 h
HepG2 [3] = experiment: Cytotoxicity against human HepG2 cells assessed as reduction in cell growth incubated for 48 hrs by SRB assay; assay type: functional, cell-based; details: HepG2, 48 h
HepG2 [4] = experiment: Cytotoxicity against human HepG2 cells assessed as reduction in cell growth incubated for 72 hrs by SRB assay; assay type: functional, cell-based; details: HepG2, 72 h
MCF7 [5] = experiment: Cytotoxicity against human MCF7 cells assessed as reduction in cell growth incubated for 72 hrs by SRB assay; assay type: functional, cell-based; details: MCF7, 72 h
NCI-H460 [6] = experiment: Cytotoxicity against human NCI-H460 cells assessed as reduction in cell growth incubated for 48 hrs by SRB assay; assay type: functional, cell-based; details: NCI-H460, 48 h
SF-268 [7] = experiment: Cytotoxicity against human SF-268 cells assessed as reduction in cell growth incubated for 72 hrs by SRB assay; assay type: functional, cell-based; details: SF-268, 72 h
HEK293 = experiment: Cytotoxicity against HEK293 cells assessed as cell growth inhibition; assay type: functional, cell-based; details: Homo sapiens
NCI-H460 [8] = experiment: Cytotoxicity against human NCI-H460 cells assessed as reduction in cell growth incubated for 72 hrs by SRB assay; assay type: functional, cell-based; details: NCI-H460, 72 h
MCF7 [9] = experiment: Cytotoxicity against human MCF7 cells assessed as reduction in cell growth incubated for 48 hrs by SRB assay; assay type: functional, cell-based; details: MCF7, 48 h
HCT-116 [10] = experiment: Cytotoxicity against human HCT-116 cells assessed as reduction in cell viability incubated for 24 hrs by MTT assay; assay type: functional, cell-based; details: HCT-116, 24 h
SF-268 [11] = experiment: Cytotoxicity against human SF-268 cells assessed as reduction in cell growth incubated for 48 hrs by SRB assay; assay type: functional, cell-based; details: SF-268, 48 h
RKO = experiment: Cytotoxicity against human RKO cells assessed as inhibition of cell growth measured after 48 hrs by MTT assay; assay type: functional, cell-based
PC-3 [12] = experiment: Cytotoxicity against human PC-3 cells assessed as reduction in cell viability measured after 72 hrs by MTT assay; assay type: functional, cell-based; details: PC-3, 72 h
U-937 [13] = experiment: Cytotoxicity against human U-937 cells assessed as reduction in cell viability incubated for 72 hrs by MTT assay; assay type: functional, cell-based; details: U-937, 72 h
NCI-H1975 = experiment: Cytotoxicity against human NCI-H1975 cells assessed as cell growth inhibition by MTT assay; assay type: functional, cell-based
HL-60 = experiment: Cytotoxicity against human HL-60 cells assessed as cell growth inhibition by MTT assay; assay type: functional, cell-based
A549 [14] = experiment: Cytotoxicity against human A549 cells assessed as reduction in cell growth by MTT assay; assay type: functional, cell-based
K562 = experiment: Cytotoxicity against human K562 cells assessed as cell growth inhibition by MTT assay; assay type: functional, cell-based
HCT-116 [15] = experiment: Cytotoxicity against human HCT-116 cells assessed as reduction in cell growth by MTT assay; assay type: functional, cell-based
[16] = Cytotoxicity against human Huh7.5 cells assessed as reduction in cell viability incubated for 72 hrs by CCK-8 assay; assay type: toxicity, cell-based, Huh-7.5
HeLa [17] = experiment: Cytotoxicity against human HeLa cells assessed as reduction in cell viability incubated for 24 hrs by CCK-8 assay; assay type: functional, cell-based
A549 [18] = experiment: Cytotoxicity against human A549 cells assessed as reduction in cell viability incubated for 24 hrs by CCK-8 assay; assay type: functional, cell-based; details: A549, 24 h
[19] = Cytotoxicity against human AML1 cells expressing FLT3-ITD mutant assessed as cell viability; assay type: functional, cell-based
HepG2 [20] = experiment: Antiproliferative activity against human HepG2 cells assessed as reduction in cell viability by CCK-8 assay; assay type: functional, cell-based
A549 [21] = experiment: Cytotoxicity against human A549 cells assessed as reduction in cell viability incubated for 48 hrs by MTT assay; assay type: functional, cell-based; details: A549, 48 h
HCT-116 [22] = experiment: Cytotoxicity against human HCT-116 cells assessed as reduction in cell viability incubated for 48 hrs by MTT assay; assay type: functional, cell-based; details: HCT-116, 48 h
A549 [23] = experiment: Antiproliferative activity against human A549 cells assessed as reduction in cell viability incubated for 72 hrs by CCK-8 assay; assay type: functional, cell-based; details: A549, 72 h
AGS = experiment: Antiproliferative activity against human AGS cells assessed as reduction in cell viability measured for 48 hrs by Cell-Titer Glo assay; assay type: functional, cell-based
HCT-116 [24] = experiment: Antiproliferative activity against human HCT-116 cells assessed as reduction in cell growth; assay type: functional, cell-based
MCF7 [25] = experiment: Antiproliferative activity against human MCF7 cells assessed as reduction in cell viability incubated for 72 hrs by MTT assay; assay type: functional, cell-based; details: MCF7, 72 h
Bel-7402 = experiment: Cytotoxicity against human Bel-7402 cells assessed as reduction in cell growth incubated for 72 hrs measured by MTT assay; assay type: functional, cell-based; details: Bel-7402, 72 h
L1210 = experiment: Cytotoxicity against mouse L1210 assessed as cell growth inhibition; assay type: functional, cell-based
HeLa [26] = experiment: Cytotoxicity against human HeLa cells assessed as cell growth inhibition; assay type: functional, cell-based
SF-268 [27] = experiment: Cytotoxicity against human SF-268 cells assessed as inhibition of cell growth incubated for 72 hrs by SRB assay; assay type: functional, cell-based; details: SF-268, 72 h
A549 [28] = experiment: Cytotoxicity against human A549 cells assessed as inhibition of cell growth incubated for 72 hrs by SRB assay; assay type: functional, cell-based; details: A549, 72 h
HepG2 [29] = experiment: Cytotoxicity against human HepG2 cells assessed as inhibition of cell growth incubated for 72 hrs by SRB assay; assay type: functional, cell-based; details: HepG2, 72 h
MCF7 [30] = experiment: Cytotoxicity against human MCF7 cells assessed as inhibition of cell growth incubated for 72 hrs by SRB assay; assay type: functional, cell-based; details: MCF7, 72 h
[31] = Cytotoxicity against human HaCaT cells incubated for 24 hrs by MTS assay; assay type: toxicity, cell-based
HCT-116 [32] = experiment: Cytotoxicity against human HCT-116 cells assessed as reduction in cell viability incubated for 48 hrs by Celltiter-Glo assay; assay type: functional, cell-based; details: HCT-116, 48 h
A549 [33] = experiment: Cytotoxicity against human A549 cells assessed as reduction in cell viability incubated for 48 hrs by Celltiter-Glo assay; assay type: functional, cell-based; details: A549, 48 h

SMILES: COc1ccc2c3c(n(CC=C(C)C)c2c1)[C@H](C=C(C)C)N1C(=O)[C@@H]2CCCN2C(=O)[C@@]1(O)[C@H]3OC
- IC50 (PC-3 [1]): 98700 nM
- IC50 (U-937 [2]): 25300 nM

SMILES: CC(=O)O[C@H]1C=CC=C2C[C@]34SS[C@](CO)(C(=O)N3[C@@H]21)N(C)C4=O
- IC50 (HepG2 [3]): 490 nM
- IC50 (HepG2 [4]): 320 nM
- IC50 (MCF7 [5]): 220 nM
- IC50 (NCI-H460 [6]): 320 nM
- IC50 (SF-268 [7]): 250 nM
- IC50 (HEK293): 4490 nM
- IC50 (NCI-H460 [8]): 490 nM
- IC50 (MCF7 [9]): 220 nM
- IC50 (HCT-116 [10]): 890 nM
- IC50 (SF-268 [11]): 250 nM
- IC50 (RKO): 1240 nM

SMILES: CS[C@]1(CO)C(=O)N2[C@H]3C(=CC=C[C@@H]3O)C[C@@]2(SC)C(=O)N1C [BIS(DETHIO)BIS(METHYLTHIO)GLIOTOXIN]
- IC50 (PC-3 [12]): 390 nM
- IC50 (U-937 [13]): 200 nM

SMILES: CN1C(=O)[C@]23SSS[C@]1(CO)C(=O)N2[C@H]1Nc2ccccc2C1(C12c4ccccc4N[C@H]1N1C(=O)[C@@]4(CO)SSSS[C@]1(C(=O)N4C)[C@H]2O)[C@@H]3O (stereo partly specified)
- IC50 (NCI-H1975): 3600 nM
- IC50 (HL-60): 1900 nM
- IC50 (A549 [14]): 1900 nM
- IC50 (K562): 1900 nM
- IC50 (HCT-116 [15]): 2100 nM

SMILES: CO[C@@H]1CC(=O)[C@@H]2C[C@@]34SS[C@]5(C[C@H]6C(=O)CC(=O)[C@H](O)[C@H]6N5C3=O)C(=O)N4[C@@H]2[C@H]1O
- IC50 at 72 h [16]: 9520 nM

SMILES: CC[C@H](C)[C@]1(OC)NC(=O)[C@@H](Cc2ccccc2)N2C(=O)C3=C(NC21)OC=CC=C3 (stereo partly specified)
- IC50 (HeLa [17]): 190000 nM
- IC50 (A549 [18]): 100000 nM

SMILES: CC1(C)C=Cc2c(ccc3c2N[C@@]24N5C(=O)[C@]6(O)CCCN6C(=O)[C@]5(O)C[C@@]32O[C@H](CO)C4(C)C)O1
- IC50 [19]: 10000 nM

SMILES: CS[C@@]12CC3=CC=C[C@H](OC(C)=O)[C@H]3N1C(=O)[C@]1(SC)CC3=CC=C[C@H](O)[C@H]3N1C2=O
- IC50 (HepG2 [20]): 21 µg/mL (≈ 45.6 µM)

SMILES: CC(C)C[C@H]1NC(=O)[C@@H](Cc2ccc3c(c2)OCO3)NC1=O
- IC50 (A549 [21]): 28.4 µg/mL (≈ 93.3 µM)
- IC50 (HCT-116 [22]): 45.4 µg/mL (≈ 149 µM)

SMILES: CC(=O)O[C@H]1C=COC=C2C[C@@]34SS[C@]5(Cc6ccccc6N5C3=O)C(=O)N4[C@@H]21
- IC50 (A549 [23]): 23000 nM
- IC50 (AGS): 29000 nM
- IC50 (HCT-116 [24]): 52000 nM
- IC50 (MCF7 [25]): 31000 nM

SMILES: CN1C(=O)[C@]2(S)CC3=CC=C[C@H](O)[C@H]3N2C(=O)[C@]1(S)CO
- IC50 (HEK293): 1260 nM
- IC50 (HCT-116 [10]): 430 nM
- IC50 (RKO): 410 nM

SMILES: C[C@H]1CCN2C[C@]34CC5(C(=O)Nc6c5cc(O)c5c6OC=CC(C)(C)O5)C(C)(C)[C@@H]3C[C@]12C(=O)N4C (stereo partly specified)
- IC50 (Bel-7402): 3300 nM

SMILES: CC1(C)C=Cc2c(ccc3c2N(O)C(=O)[C@@]32C[C@@]34NC(=O)[C@]5(CCCN5C3=O)C[C@H]4C2(C)C)O1
- IC50 (L1210): 29 µg/mL (≈ 62.6 µM)
- IC50 (HeLa [26]): 27 µg/mL (≈ 58.2 µM)

SMILES: CN1C(=O)[C@@]23CSC4=C(C(=O)c5ccccc5C4=O)N2C[C@@H]1CO3
- IC50 (SF-268 [27]): 11900 nM
- IC50 (A549 [28]): 13500 nM
- IC50 (HepG2 [29]): 12000 nM
- IC50 (MCF7 [30]): 20700 nM

SMILES: CC1(C)C=Cc2c(ccc3c2N[C@@]24N5C(=O)[C@@H]6CCCN6C(=O)[C@]5(O)C[C@@]32O[C@H](CO)C4(C)C)O1
- IC50 [19]: 7200 nM

SMILES: CN1C(=O)[C@]23SSS[C@]1(C)C(=O)N2[C@@H]1Nc2ccccc2C1(C12c4ccccc4N[C@@H]1N1C(=O)[C@@]4(CO)SSS[C@]1(C(=O)N4C)[C@H]2O)[C@@H]3O (stereo partly specified)
- IC50 (NCI-H1975): 200 nM
- IC50 (HL-60): 1900 nM
- IC50 (A549 [14]): 400 nM
- IC50 (K562): 400 nM
- IC50 (HCT-116 [15]): 400 nM

SMILES: CCCCCCCCCC(CC(=O)NCCCN)N1CC(=O)N(O)C(Cc2ccccc2)C1=O (stereo unspecified)
- IC50 at 24 h [31]: 50000 nM
- IC50 (HCT-116 [32]): 59900 nM
- IC50 (A549 [33]): 43200 nM

SMILES: C[C@H]1CCN2C[C@]34CC5(C(=O)Nc6c5ccc5c6OC=CC(C)(C)O5)C(C)(C)[C@@H]3C[C@]12C(=O)N4C (stereo partly specified)
- IC50 (Bel-7402): 1900 nM
